# Like-named read-outs stand apart in the source and are kept apart here.
# Experiments:
# mu opioid receptor = mu opioid receptor (Homo sapiens, UniProt P35372); experiment: Filtration binding assay: mu opioid receptor
# delta opioid receptor = delta opioid receptor (Homo sapiens, UniProt P41143); experiment: Filtration binding assay: delta opioid receptor
# kappa opioid receptor = kappa opioid receptor (Homo sapiens, UniProt P41145); experiment: Filtration binding assay: kappa opioid receptor
# [1] = mean where tested more than once, read-out: Mu IC50
# [2] = mean where tested more than once, read-out: Delta IC50
# [3] = mean where tested more than once, read-out: Kappa IC50
# Sequence of delta opioid receptor (P41143 whole entry): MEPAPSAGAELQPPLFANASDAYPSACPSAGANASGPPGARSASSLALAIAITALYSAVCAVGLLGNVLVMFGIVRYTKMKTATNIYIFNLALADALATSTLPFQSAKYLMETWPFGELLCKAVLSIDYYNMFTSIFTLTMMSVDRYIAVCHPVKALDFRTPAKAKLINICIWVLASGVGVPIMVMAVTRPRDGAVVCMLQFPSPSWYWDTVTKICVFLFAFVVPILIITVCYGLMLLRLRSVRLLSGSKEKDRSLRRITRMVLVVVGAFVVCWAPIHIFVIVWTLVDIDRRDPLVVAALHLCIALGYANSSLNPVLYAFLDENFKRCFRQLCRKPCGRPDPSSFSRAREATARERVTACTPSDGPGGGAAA
# Sequence of mu opioid receptor (P35372 whole entry): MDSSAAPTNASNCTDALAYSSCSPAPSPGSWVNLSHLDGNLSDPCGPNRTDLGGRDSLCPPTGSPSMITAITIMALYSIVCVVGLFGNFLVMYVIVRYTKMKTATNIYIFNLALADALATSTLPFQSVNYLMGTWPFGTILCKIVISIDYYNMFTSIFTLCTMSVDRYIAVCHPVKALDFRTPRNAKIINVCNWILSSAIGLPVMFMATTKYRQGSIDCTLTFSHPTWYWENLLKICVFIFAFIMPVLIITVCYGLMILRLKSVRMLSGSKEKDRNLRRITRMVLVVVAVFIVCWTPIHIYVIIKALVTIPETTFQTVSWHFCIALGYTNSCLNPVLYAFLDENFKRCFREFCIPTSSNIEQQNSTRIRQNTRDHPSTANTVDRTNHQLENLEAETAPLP
# Sequence of kappa opioid receptor (P41145 whole entry): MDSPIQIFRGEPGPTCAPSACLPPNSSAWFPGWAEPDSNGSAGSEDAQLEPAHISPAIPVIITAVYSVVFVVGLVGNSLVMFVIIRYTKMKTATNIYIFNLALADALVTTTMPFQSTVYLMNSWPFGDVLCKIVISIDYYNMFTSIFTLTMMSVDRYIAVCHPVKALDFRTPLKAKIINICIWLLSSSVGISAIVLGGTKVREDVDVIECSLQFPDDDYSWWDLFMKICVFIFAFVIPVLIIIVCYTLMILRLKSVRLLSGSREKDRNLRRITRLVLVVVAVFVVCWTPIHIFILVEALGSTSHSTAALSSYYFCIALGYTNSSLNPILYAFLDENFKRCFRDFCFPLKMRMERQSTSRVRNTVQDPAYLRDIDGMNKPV
Compound,IC50 (mu opioid receptor),IC50 (kappa opioid receptor),also measured
"CC(=O)NC(CSC[C@H](O)CN1CN(c2ccc(F)cc2)C2(CCN(CC3CCCCCCC3)CC2)C1=O)C(=O)O (single isomer, unassigned) [compound 447]",480 nM,,IC50 (delta opioid receptor): 0.48 µM
O=C1N(C[C@@H](O)CNCc2ccccn2)CN(c2ccc(F)cc2)C12CCN(CC1CCCCCCC1)CC2 [compound 39],8830 nM,3250 nM,IC50 (delta opioid receptor): > 10 µM
CC(C)(C)OC(=O)N1CCN(C[C@H](O)CN2CN(c3ccc(F)cc3)C3(CCN(CC4CCCCCCC4)CC3)C2=O)CC1 [Compound #73],680 nM,250 nM,IC50 (delta opioid receptor): > 10 µM
Cc1cccc(CNC[C@H](O)CN2CN(c3ccc(F)cc3)C3(CCN(CC4CCCCCCC4)CC3)C2=O)c1 [compound 18],450 nM,280 nM,IC50 (delta opioid receptor): > 10 µM
COCCCNC[C@H](O)CN1CN(c2ccc(F)cc2)C2(CCN(Cc3cccc4cccc(C)c34)CC2)C1=O [compound 650],,,Ki (mu opioid receptor): 740 nM; Ki (delta opioid receptor): > 5 µM; Ki (kappa opioid receptor): 460 nM
"O=C1N(C[C@@H](O)CNc2ccncc2)CN(c2ccc(F)cc2)C12CCN(CC1CCCCCCC1)CC2 [Compound #36, 8-Cyclooctylmethyl-1-(4-fluoro-phenyl)-3-[2-(S)-hydroxy-3-(pyridin-4-ylamino)-propyl]-1,3,8-triaza-spiro[4.5]decan-4-one]",1760 nM,230 nM,IC50 (delta opioid receptor): 1.76 µM
COc1cc(CCNC[C@H](O)CN2CN(c3ccc(F)cc3)C3(CCN(Cc4cccc5ccccc45)CC3)C2=O)c([N+](=O)[O-])cc1OC [compound 255],2490 nM,620 nM,IC50 (delta opioid receptor): > 10 µM
"Cc1cccc2cccc(CN3CCC4(CC3)C(=O)N(C[C@H](O)CNCCCO)CN4c3ccc(F)cc3)c12 [Compound #651, 1-(4-Fluoro-phenyl)-3-[2-(R)-hydroxy-3-(3-hydroxy-propylamino)-propyl]-8-(8-methyl-naphthalen-1-ylmethyl)-1,3,8-triaza-spiro[4.5]decan-4-one]",,,Ki (mu opioid receptor): 670 nM; Ki (delta opioid receptor): > 5 µM; Ki (kappa opioid receptor): 310 nM
COc1ccc(CCNC[C@H](O)CN2CN(c3ccc(F)cc3)C3(CCN(Cc4ccc5ccccc5c4)CC3)C2=O)cc1OC [compound 261],1560 nM,270 nM,IC50 (delta opioid receptor): > 10 µM
CCCCN(Cc1ccccc1)C[C@H](O)CN1CN(c2ccccc2)C2(CCN(C3Cc4cccc5c4[C@@H](CCC5)C3)CC2)C1=O (stereo partly shown) [compound 54],350 nM,110 nM,IC50 (delta opioid receptor): > 10 µM
COc1ccc(CCN(C)C[C@H](O)CN2CN(c3ccc(F)cc3)C3(CCN(Cc4cccc5ccccc45)CC3)C2=O)cc1OC [compound 256],5450 nM,1180 nM,IC50 (delta opioid receptor): > 10 µM
O=C1N(C[C@H](O)CN2C(CO)C(O)C(O)C2CO)CN(c2ccc(F)cc2)C12CCN(C1CCCCCCC1)CC2 (stereo partly shown) [compound 688],,,Ki (mu opioid receptor): 110 nM; Ki (delta opioid receptor): > 5 µM; Ki (kappa opioid receptor): 160 nM
CNCCCNCC(O)CN1CN(c2ccc(F)cc2)C2(CCN(CC3CCC4CC3C4(C)C)CC2)C1=O (mixture of isomers) [compound 664],,,Ki (mu opioid receptor): 260 nM; Ki (delta opioid receptor): > 5 µM; Ki (kappa opioid receptor): 720 nM
COc1ccc(CNC[C@@H](O)CN2CN(c3ccc(F)cc3)C3(CCN(CC4CCCCCCC4)CC3)C2=O)cc1OC [Compound #2],1200 nM,190 nM,IC50 (delta opioid receptor): > 10 µM
Cc1cccc2cccc(CN3CCC4(CC3)C(=O)N(C[C@H](O)CNCCN(C)C(=O)OC(C)(C)C)CN4c3ccc(F)cc3)c12 [compound 667],,,Ki (mu opioid receptor): 770 nM; Ki (delta opioid receptor): 4.14 µM; Ki (kappa opioid receptor): 450 nM
O=C1N(C[C@H](O)CNCCc2c[nH]cn2)CN(c2ccc(F)cc2)C12CCN(CC1CCCCCCC1)CC2 [Compound #4],160 nM,110 nM,IC50 (delta opioid receptor): > 10 µM
CC(=O)NC(CSC[C@H](O)CN1CN(c2ccc(F)cc2)C2(CCN(CC3CCCCCCC3)CC2)C1=O)C(=O)O (stereo partly shown) [compound 100],,,IC50 (mu opioid receptor; [1]): 230 nM; IC50 (delta opioid receptor; [2]): > 10 µM; IC50 (kappa opioid receptor; [3]): 280 nM
Cc1cccc2cccc(CN3CCC4(CC3)C(=O)N(C[C@H](O)CN3CC[C@@H](NC(=O)OC(C)(C)C)C3)CN4c3ccc(F)cc3)c12 [compound 710],,,Ki (mu opioid receptor): 1090 nM; Ki (delta opioid receptor): > 5 µM; Ki (kappa opioid receptor): 360 nM
O=C1N(C[C@H](O)CNCc2cc(C(F)(F)F)cc(C(F)(F)F)c2)CN(c2ccc(F)cc2)C12CCN(CC1CCCCCCC1)CC2 [Compound #3],4050 nM,440 nM,IC50 (delta opioid receptor): 9.16 µM
"Cc1cccc2cccc(CN3CCC4(CC3)C(=O)N(C[C@H](O)CNCCCN(C)C)CN4c3ccc(F)cc3)c12 [Compound #666, 3-[3-(3-Dimethylamino-propylamino)-2-(R)-hydroxy-propyl]-1-(4-fluoro-phenyl)-8-(8-methyl-naphthalen-1-ylmethyl)-1,3,8-triaza-spiro[4.5]decan-4-one]",,,Ki (mu opioid receptor): 2590 nM; Ki (delta opioid receptor): > 5 µM; Ki (kappa opioid receptor): 140 nM
"CN(C)C[C@@H](O)CN1CN(c2ccc(F)cc2)C2(CCN([C@@H]3Cc4cccc5cccc3c45)CC2)C1=O [Compound #423, (R)-Acenaphthen-1-yl-3-(3-dimethylamino-2-hydroxy-(R)-propyl)-1-(4-fluoro-phenyl)-1,3,8-triaza-spiro[4.5]decan-4-one]",,,IC50 (mu opioid receptor; [1]): 310 nM; IC50 (delta opioid receptor; [2]): > 1 µM; IC50 (kappa opioid receptor; [3]): 590 nM
CC1CN(C[C@H](O)CN2CN(c3ccc(F)cc3)C3(CCN(CC4CCCCCCC4)CC3)C2=O)CC(C)O1 (stereo partly shown) [compound 75],980 nM,300 nM,IC50 (delta opioid receptor): > 10 µM

Compound,IC50 (mu opioid receptor),IC50 (kappa opioid receptor),also measured
Cc1cccc2cccc(CN3CCC4(CC3)C(=O)N(C[C@@H](O)CO)CN4c3ccc(F)cc3)c12 [compound 554],> 10000 nM,9470 nM,
Cc1cccc2cccc(CN3CCC4(CC3)C(=O)N(C[C@@H](O)CNCCN3CCOCC3)CN4c3ccc(F)cc3)c12 [compound 396],> 10000 nM,810 nM,
O=C1N(C[C@@H](O)CNCc2cccnc2)CN(c2ccc(F)cc2)C12CCN(Cc1cc(C(F)(F)F)cc(C(F)(F)F)c1)CC2 [compound 609],≥ 10000 nM,≥ 10000 nM,
O=C1N(C[C@@H](O)CNc2ccccc2)CN(c2ccc(F)cc2)C12CCN(Cc1c(Cl)cccc1C(F)(F)F)CC2 [compound 458],> 10000 nM,1450 nM,
O=C1N(C[C@@H](O)CNCc2cc(F)ccc2F)CN(c2ccc(F)cc2)C12CCN(CC1CCCCCCC1)CC2 [compound 12],520 nM,200 nM,
CCOC(=O)CN(Cc1ccccc1)C[C@H](O)CN1CN(c2ccc(F)cc2)C2(CCN(Cc3cc(C(F)(F)F)cc(C(F)(F)F)c3)CC2)C1=O [compound 670],≥ 10000 nM,≥ 10000 nM,
O=C1N(C[C@@H](O)CNCc2ccc(C(F)(F)F)cc2)CN(c2ccc(F)cc2)C12CCN(CC1CCCCCCC1)CC2 [Compound #29],5410 nM,410 nM,
O=C1N(C[C@@H](O)CN2CCc3ccccc3C2)CN(c2ccc(F)cc2)C12CCN(CC1CCCCCCC1)CC2 [Compound #72],1840 nM,790 nM,
O=C(O)c1ccc(CNC[C@H](O)CN2CN(c3ccc(F)cc3)C3(CCN(CC4CCCCCCC4)CC3)C2=O)cc1 [compound 452],570 nM,1520 nM,
Cc1cccc2cccc(CN3CCC4(CC3)C(=O)N(C[C@H](O)CN(Cc3ccccc3)C(C)(C)C)CN4c3ccc(F)cc3)c12 [compound 389],7060 nM,9840 nM,
COc1ccc(CCN(C)C[C@H](O)CN2CN(c3ccc(F)cc3)C3(CCN(Cc4cc(C(F)(F)F)cc(C(F)(F)F)c4)CC3)C2=O)cc1OC [compound 673],≥ 10000 nM,≥ 10000 nM,
O=C1N(C[C@@H](O)CN2CCc3ccccc3C2)CN(c2ccc(F)cc2)C12CCN(Cc1cc(C(F)(F)F)cc(C(F)(F)F)c1)CC2 [compound 682],≥ 10000 nM,≥ 10000 nM,
Cc1cccc2cccc(CN3CCC4(CC3)C(=O)N(C[C@H](O)CNc3ccncc3)CN4c3ccc(F)cc3)c12 [compound 393],> 10000 nM,1040 nM,
COc1ccc(CCNC[C@H](O)CN2CN(c3ccc(F)cc3)C3(CCN(Cc4cccc5cccc(C)c45)CC3)C2=O)cc1OC [compound 386],> 10000 nM,3690 nM,
COc1ccc(CCN(C)C[C@H](O)CN2CN(c3ccc(F)cc3)C3(CCN(Cc4cccc5cccc(C)c45)CC3)C2=O)cc1OC [compound 399],> 10000 nM,750 nM,
O=C1N(C[C@@H](O)CNCc2cc(C(F)(F)F)cc(C(F)(F)F)c2)CN(c2ccc(F)cc2)C12CCN(C1Cc3cccc4cccc1c34)CC2 (mixture of isomers) [compound 319],320 nM,580 nM,
CC(c1ccccc1)N(Cc1ccccc1)C[C@H](O)CN1CN(c2ccc(F)cc2)C2(CCN(Cc3cc(C(F)(F)F)cc(C(F)(F)F)c3)CC2)C1=O (stereo partly shown) [compound 672],≥ 10000 nM,≥ 10000 nM,
Cc1cccc2cccc(CN3CCC4(CC3)C(=O)N(C[C@@H](O)CN(Cc3ccccc3)C(C)(C)C)CN4c3ccc(F)cc3)c12 [compound 395],1100 nM,> 10000 nM,
CCN(CC)C(=O)C1CCCN(C[C@H](O)CN2CN(c3ccc(F)cc3)C3(CCN(Cc4cc(C(F)(F)F)cc(C(F)(F)F)c4)CC3)C2=O)C1 (stereo partly shown) [compound 686],≥ 10000 nM,2520 nM,
O=C1N(C[C@@H](O)CN2CCN(C(c3ccccc3)c3ccc(Cl)cc3)CC2)CN(c2ccc(F)cc2)C12CCN(C1Cc3cccc4cccc1c34)CC2 (mixture of isomers) [compound 337],550 nM,250 nM,
"Cc1cccc2cccc(CN3CCC4(CC3)C(=O)N(C[C@H](O)CN(C)C)CN4c3ccc(F)cc3)c12 [Compound #441, 3-(3-Dimethylamino-2-(R)-hydroxy-propyl)-1-(4-fluoro-phenyl)-8-(8-methyl-naphthalen-1-ylmethyl)-1,3,8-triaza-spiro[4.5]decan-4-one]",> 10000 nM,> 10000 nM,
CN(C)CCN(Cc1ccccc1)C[C@H](O)CN1CN(c2ccc(F)cc2)C2(CCN(Cc3cc(C(F)(F)F)cc(C(F)(F)F)c3)CC2)C1=O [compound 674],≥ 10000 nM,≥ 10000 nM,
